Results: patent US9744164B2, “Neuroprotective polyphenol analogs” (Salk Institute for Biological Studies, priority 2011, dated 2017)

Assays:
HT22 cells = test: in vitro ischemia assay (HT22 cell IAA assay); assay type: cell-based, mouse; details: for improvement of neuroprotective activity/potency over Fisetin: relative to Fisetin, in vitro ischemia; for increase in survival: 20 μM IAA, over the neuroprotective concentration range
Protocol: For these studies, cultured HT22 mouse hippocampal cells were used as an in vitro stroke assay. HT22 cells were treated with iodoacetic acid (IAA), an irreversible inhibitor of glyceraldehyde 3-phosphate dehydrogenase (G3PDH) for 2 hr alone or in the presence of varying concentrations of Fisetin. G3PDH is an enzyme of the glycolysis pathway, which catalyzes the synthesis of 1,3-bisphosphoglycerate, a “high energy” intermediate used for the synthesis of ATP. Cell survival was measured using a standard colorimetric MTT (3-(4,5-dimethylthiazol-2-yl)-2,5-diphenyltetrazolium bromide) assay for cell survival MTT is a pale yellow substrate that is cleaved by living cells to yield a dark blue formazan product.
Cytotoxicity assay. Cell viability was determined by a modified version of 3-(4,5-dimethylthiazol-2-yl)-2,5-diphenyl tetrazolium bromide (MTT) assay based on the standard procedure (Maher, et al., Brain Research. (2007), supra). Cells were seeded onto 96-well microtiter plates at a density of 5×10^3 cells per well. For the in vitro ischemia assay, the next day, the medium was replaced with DMEM supplemented with 7.5% DFCS and the cells were treated with 20 μM iodoacetic acid (IAA) alone or in the presence of the different derivatives. After 2 hr the medium in each well was aspirated and replaced with fresh medium without IAA but containing the derivatives. 20 hr later, the medium in each well was aspirated and replaced with fresh medium containing 2.5 μg/ml MTT. After 4 hr of incubation at 37° C., the cells were solubilized with 100 μl of a solution containing 50% dimethylformamide and 20% SDS (pH 4.7). The absorbance at 570 nm was measured on the following day with a microplate reader (Molecular Devices). Results were confirmed by visual inspection of the wells. Controls included compound alone to test for toxicity and compound with no cells to test for interference with the assay chemistry.
For a primary screen, an in vitro ischemia model in combination with the HT22 nerve cell line (Maher, et al., Brain Research. (2007) 1173, 117-125) was chosen. […] To induce ischemia in the HT22 cells we used iodoacetic acid (IAA), a well-known, irreversible inhibitor of the glycolytic enzyme glyceraldehyde 3-phosphate dehydrogenase (G3PDH) (Winkler, et al., Exp. Eye Res. (2003) 76, 715-723). IAA has been used in a number of other studies to induce ischemia in nerve cells (Reshef, et al., Neurosci. Lett. (1997) 238, 37-40; Sperling, et al., Neursci. Lett. (2003) 351, 137-140; Rego, et al., Neurochem. Res. (1999) 24, 351-358; Sigalov, et al,. J. Mol. Neurosci. (2000) 15, 147-154; and Reiner, et al., Neurosci. Lett. (1990) 119, 175-178), including several recent screens for neuroprotective molecules (Biraboneye, et al., J. Med. Chem. (2009) 52 (14), 4358-4369; Biraboneye, et al., Chem. Med. Chem. (2010) 5 (1), 79-85). The changes following IAA treatment of neural cells are very similar to those seen in animal models of ischemic stroke (Lipton, et al., Physiol. Rev. (1999) 79, 1431-1568) and include alterations in membrane potential (Reiner, et al., Neurosci. Lett. (1990) 119, 175-178), breakdown of phospholipids (Taylor, et al., J. Pharmacol. Exp. Ther. (1996) 276, 1224-1231), loss of ATP (Winkler, et al., Exp. Eye Res. (2003) 76, 715-723; Sperling, et al., Neursci. Lett. (2003) 351, 137-140) and an increase in reactive oxygen species (ROS) (Taylor, et al., J. Pharmacol. Exp. Ther. (1996), supra; and Sperling, et al., Neursci. Lett. (2003) 351, 137-140).
The roles of the four different hydroxyl groups in the activity of Fisetin were studied. […] Cell viability was determined after 24 hr by the MTT assay. The ability to maintain GSH (GSH) was determined by treating HT22 cells with different doses of each derivative (1-10 μM) in the presence of 5 mM glutamate. After 24 hr cell extracts were prepared and analyzed for total GSH. Fisetin (10 μM) was used as a positive control. […]

mice = details: oral dose; cited from earlier work
[1] = tested on: embolic strokes in rabbits; test: rabbit small clot embolic stroke model (RSCEM); assay type: in vivo
Text: The ability of polyphenol analogs to treat, prevent and/or mitigate one or more symptoms of stroke can also be evaluated in in vivo assays. Such assays are known in the art and find use. One applicable in vivo screening assay is the rabbit clot embolic stroke model, discussed, e.g., in Lapchak, et al., Stroke (2002) 33(9):2279-84 and Lapchak, Exp Neurol. (2007) 205(2):407-13. The rabbit small clot embolic stroke model (RSCEM) and rabbit large clot embolic stroke model (RLCEM) can be used to determine the potential neuroprotective properties and safety profile of test polyphenol analogs after an embolic stroke. Rabbits are embolized by injecting small blood clots (RSCEM) or large blood clots (RLCEM) into the cerebral circulation. Behavioral analysis is conducted 24 hours later, allowing for determination of the effective stroke dose (ES50) or clot amount (milligrams) that produces severe neurological deficits in 50% of rabbits. A drug is considered neuroprotective if it increases the ES50 compared with the vehicle-treated control group.
Either vehicle or bolus injections of chlorogenic acid were administered intravenously over 1 minute starting 5 minutes following embolization using a suspension of small-sized blood clots. In this series of studies, CGA was administered at 50 mg/kg. Behavioral analysis was conducted at 24 hours following treatment, which allowed for the construction of quantal dose-response analysis curves. […] For the superimposed graphs, normal animals are plotted on the y-axis at 0% and abnormal animals are plotted at 100%. […] Moreover, CGA increased the P50 value (the clot dose that produces abnormality in 50% of a treatment group) compared to vehicle control. For a detailed discussion of the methods used to fit the quantal data to a sigmoidal curve, see Zivin and Waud. The pharmacology of chlorogenic acid in the rabbit small clot embolic stroke model (RSCEM) has been published (Lapchak, Exp Neurol. 2007 205(2):407-13). In the manuscript, it is shown that CGA has a therapeutic window of 60 minutes in the RSCEM. FIG. 2 presents the therapeutic window data.
Using the RSCEM assay described above for CGA, the effects of Fisetin (50 mg/kg) on behavioral outcome measured 24 hours following embolization is tested.

[2] = tested on: embolic strokes in rabbits; details: RSCEM, as published in the manuscript; cited from earlier work

SMILES: COc1cc(-c2ccc(O)c(O)c2)nc2ccccc12 [CMS-007, 4-methoxy-2-(3,4-dihydroxyphenyl)quinoline]
- improvement of neuroprotective activity/potency over Fisetin (HT22 cells): ~75 fold

SMILES: Oc1ccc(-c2cc(OC3CCCC3)c3ccccc3n2)cc1O [CMS-121, 4-cyclopentyloxy-2-(3,4-dihydroxyphenyl)quinoline]
- improvement of neuroprotective activity/potency over Fisetin (HT22 cells): > 400 fold

SMILES: O=c1c(O)c(-c2ccc(O)c(O)c2)oc2cc(O)ccc12 [Fisetin, 3,7,3′,4′-tetrahydroxy flavone]
- increase in survival (HT22 cells; HT22 cells): greater than 85%
- memory (mice): potentiates memory equally as well as rolipram

SMILES: COc1ccc(/C=C/C(=O)c2cc(C)c(C)cc2O)cc1OCc1ccccc1 [CMS-086, (E)-3-(3-(benzyloxy)-4-methoxyphenyl)-1-(2-hydroxy-4,5-dimethylphenyl)prop-2-en-1-one]
- EC50 in vitro ischemia (HT22 cells; HT22 cells, 20 μM IAA 2 hr, viability by MTT after 24 hr, 'no' = no protection): no

SMILES: CCOc1cc(-c2ccc(O)c(O)c2)nc2ccccc12 [CMS-023, 4-ethoxy-2-(3,4-dihydroxyphenyl)quinoline]
- improvement of neuroprotective activity relative to CMS-007 (HT22 cells): ~2 fold
- improvement of neuroprotective activity/potency over Fisetin (HT22 cells): ~140 fold

SMILES: O=c1cc(-c2ccccc2)oc2cc(O)c(O)c(O)c12 [Baicalein, 5,6,7-trihydroxyflavone]
- increase in survival (HT22 cells; HT22 cells): greater than 80%
- behavior when administered 1 hour following embolization ([1]; 1 hour following embolization): effective at improving behavior
- behavior when administered 3 hours following embolization ([1]; 3 hours following embolization): neither improve behavior
- therapeutic window [2]: ≥ 60 min

SMILES: CC(C)Oc1cc(-c2ccc(O)c(O)c2)nc2ccccc12 [CMS-024, 4-isopropoxy-2-(3,4-dihydroxyphenyl)quinoline]
- improvement of neuroprotective activity relative to CMS-007 (HT22 cells): ~2 fold

SMILES: O=c1c(O)c(-c2ccc(O)c(O)c2)oc2ccccc12 [CMS-04P, reference compound]
- improvement of neuroprotective activity/potency over Fisetin (HT22 cells): ~6 fold

SMILES: O=c1c(O)c(-c2ccc(N3CCCC3)c(O)c2)oc2c1ccc1ccccc12 [CMS-140, 3-hydroxy-2-(3-hydroxy-4-(pyrrolidin-1-yl)phenyl)-4H-benzo[h]chromen-4-one]
- improvement of neuroprotective activity/potency over Fisetin (HT22 cells): up to 600 fold
